In patent publication US20190083508A1, “USE OF OX1R ANTAGONISTS FOR THE TREATMENT OF INFLAMMATORY BOWEL DISEASES” (Inserm (Institut National De La Sante et de la Recherche …, priority 2014, published 2019):
No end group written: not given here.

Key:
[1] = system: colon adenocarcinoma HT-29 cells; assay: Cell growth determination, HT-29 cells; type: cell-based; conditions: 48 hr, 0.1 μM OxA or increasing concentrations of SB408124
Protocol: (§1) FIG. 6: Determination of the inhibition of cellular growth of HEK-OX1R cells and colon adenocarcinoma cells (HT-29) induced by 0.1 μM of OxA or various concentrations of SB408124 antagonist. HEK-OX1R cells (black column) and HT-29 cells (white column) were incubated with 0.1 μM of OxA and indicated increasing concentration of SB408124, and cells were counted after 48 hr incubation. Results are expressed as the percentage of total viable cells.
(§2) HEK-OX1R cells or colon adenocarcinoma HT-29 cells were seeded, grown and maintained at 37° C. in a humidified 5% CO2/air incubator. After 24 hr culture, cells were treated with or without Orexin-A peptide or SB408124 antagonist, previously dissolved in DMSO, to be tested at the concentration indicated in the figure legends. After 48 hr of treatment, adherent cells were harvested by TriplE (Life Technologies, Saint Aubin, France) and manually counted. Apoptosis was determined using the Guava PCA system and the Guava nexin kit.

[2] = system: colon adenocarcinoma HT-29 cells; assay: Apoptosis assay (annexin V-PE binding), HT-29 cells; type: cell-based; conditions: 48 h, 1 μM orexin-A or various concentrations of SB408124
Protocol: FIG. 7: Effect of orexin-A and SB408124 antagonist on apoptosis in OX1R expressing colon adenocarcinoma cells, HT-29. HT-29 cells were challenged with 1 μM orexin-A or various concentration of SB408124 for 48 h. Apoptosis was measured by determination of annexin V-PE binding, and results are expressed as the percentage of apoptotic cells. Results are means±SE of three experiments. ***P<0.001.
as §2

HEK-OX1R cells = assay: Cell growth determination, HEK-OX1R cells; type: cell-based; conditions: 48 hr, 0.1 μM OxA or increasing concentrations of SB408124
Protocol: as §1, §2

OX1R = target: T1, OX1R (Homo sapiens, UniProt O43613); assay: Ca2+ mobilization assay in HEK-OX1R cells (FluoForte); type: cell-based
T1 construct: HEK cells expressing recombinant native OX1R (HEK-OX1R); expressed in transfected cells; host or cells: HEK cells (HEK-OX1R)
T1 sequence (O43613 1-425): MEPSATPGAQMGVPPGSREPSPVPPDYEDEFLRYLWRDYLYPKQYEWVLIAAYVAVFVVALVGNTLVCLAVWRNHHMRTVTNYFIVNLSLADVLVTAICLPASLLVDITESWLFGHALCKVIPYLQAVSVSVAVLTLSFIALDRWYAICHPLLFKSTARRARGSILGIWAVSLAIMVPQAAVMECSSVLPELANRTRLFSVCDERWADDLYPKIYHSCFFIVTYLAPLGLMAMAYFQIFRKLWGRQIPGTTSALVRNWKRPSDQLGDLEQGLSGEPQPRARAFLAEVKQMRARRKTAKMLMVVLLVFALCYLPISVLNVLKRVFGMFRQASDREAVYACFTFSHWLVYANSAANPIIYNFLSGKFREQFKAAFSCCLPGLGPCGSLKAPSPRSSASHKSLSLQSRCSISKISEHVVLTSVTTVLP
Protocol: FIG. 5: Effect of orexin-A and SB408124 antagonist on Ca2+ mobilization in HEK-OX1R cells. Top, HEK-OX1R cells were incubated with fluorescence probe (FluoForte) for 45 min. at 37° C. according to FluoForte calcium assay kit (Enzo Life Sciences). 1 μM of OxA was added to cells and fluorescence emission was measured on TECAN Infinite 200 fluorospectrophotometer. Bottom, HEK-OX1R cells were incubated with fluorescence probe (FluoForte) for 45 min. at 37° C. and then incubated with 1 μM of SB408124 for 1 h at 37° C. After pre-incubation, 1 μM of OxA was added to cells and fluorescence emission was measured.
HEK cells expressing recombinant native OX1R (HEK-OX1R) cells were seeded in 96-wells plate, grown and maintained at 37° C. in a humidified 5% CO2/air incubator. 80,000 cells/well were incubated with FluoForte probe according to FluoForte calcium assay kit (ENZO life Sciences, Farmingdale, N.Y., USA) for 45 min. at 37° C. and then incubated with or without 1 μM of […] antagonist for 1 h at 37° C. After pre-incubation, 1 μM of OxA was added and fluorescence was determined using TECAN Infinite 200 fluorospectrophotometer.

DSS-induced colitis mice [3] = assay: Cytokine assays in colon extracts of DSS-induced colitis mice; type: in vivo; conditions: daily ip 0.22 μmoles/kg, 7 days
Protocol: FIG. 3: OXA effects on cytokines secretion in DSS-induced colitis mice. Right, Colons of DSS untreated mice (white), DSS treated mice (gray) and DSS treated mice associated to OxA treatment (black) were resected after animal sacrifice. Then, protein extraction was performed by tissue disruption. Cytokines were determined using Cytokine CBA kits (see Material and Methods). Left, after colon resection, RNA were extracted from colonic tissue and qPCR was performed using specific oligonucleotides for IL8 homolog and IL1B.
These observations are confirmed by histologic aspect of colon epithelium (histologic scoring by a GI pathologist). Thus, OxA has probably an anti-inflammatory effect on DSS-induced colitis. To confirm this hypothesis, we have investigated the anti-inflammatory effect of OxA treatment on cytokines secretion in colon extracts from DSS-treated mice. […] In contrast, OxA has no effect on INFγ, IL10, and IL12 cytokine secretion in colon extracts (FIG. 3).
Balb/c mice were orally treated by 5% (w/v) of Dextran Sulfate Sodium (DSS) for 7 days. Orexin treatment was carried out in DSS treated mice by daily intraperitoneal injection of OxA (0.22 μmoles/kg) for 7 days. Weight and colitis symptoms (diarrhea, blood in the stool . . . ) for each mouse was daily measured. After 7 days of treatment, animals were sacrificed and colons were resected to further analyses (size, histological aspect, cytokine assays). […] mice (IL10^−/− and Nox1^−/−) which develop a spontaneous colitis at 6/7 weeks of age were treated or not with OxA (0.22 μmoles/kg, 2 intraperitoneal injection/week for 21 days). After animal sacrifice colons were resected and histologic analysis was performed.
Mice were sacrificed and colons were resected. Proteins were extracted from colon by tissue disruption in PBS using Tissue Lyser (Qiagen, Courtaboeuf, France). Various cytokines (see FIG. 3) were determined using Cytokine CBA kits (BD Sciences, Le Pont de Claix, France).

DSS-induced colitis mice [4] = assay: DSS-induced colitis mice, Disease Activity Index; type: in vivo, Balb/c mice; conditions: 5% DSS orally 7 days; daily ip 0.22 μmoles/kg
Text: FIG. 2: OXA ameliorates the DAI (weight and colitis score) of DSS-induced colitis mice. Mice were orally treated with 5% DSS for 7 days in the presence or in the absence of daily intraperitoneal injection of OxA (0.22 μmoles/kg). Left, determination of gain or loss of weight in the absence of DSS treatment (Control, ▴), in the presence of DSS treatment (DSS, ▪) and in the presence of DSS associated to OxA treatment (DSS+OxA, ●). Right, evaluation of Disease Activity Index (DAI) scored by measuring weight, length of colon, diarrhea and blood presence in the stool in DSS untreated control mice (Control, ▴), in DSS treated mice (DSS, ▪) and in DSS treated mice associated to OxA treatment (DSS+OxA, ●).
Based on these observations, we have investigated the effect of Orexin A (OxA) on acute inflammation in mice treated with Dextran Sulfate Sodium (DSS). OxA was preferentially chosen in these experiments since the presence of two disulphide bridges confers it more stability. DSS induces acute colitis characterized by weight loss, bloody diarrhea, intestinal ulcerations and infiltrations with granulocytes.
(§3) Balb/c mice were orally treated by 5% (w/v) of Dextran Sulfate Sodium (DSS) for 7 days. […] Weight and colitis symptoms (diarrhea, blood in the stool . . . ) for each mouse was daily measured. […]

EXCY2 mice = assay: Spontaneous UC-like colitis in EXCY2 mice (IL10-/-; Nox1-/-), colon histology; type: in vivo; conditions: 10 week-old EXCY2 mice, 0.22 μmoles/kg, 2 IP/week during 3 weeks
Protocol: FIG. 4: Histological aspect of colon mucosa in OxA treated EXCY2 mice (right) and non-treated EXCY2 mice (left). EXCY2 mice genetically invalidated for IL10 and Nox1 genes (IL10^−/− and Nox1^−/−) which develop spontaneous UC-like disease, were treated with OxA (0.22 μmoles/kg, 2 intraperitoneal injection/week for 21 days) (right) or untreated (left). After animal sacrifice colons were resected and histologic analysis was performed.
DSS mouse model has been extensively used to decipher the mucosal inflammation in IBD, UC pathogenesis, and preclinical studies. However, mice show differential susceptibilities and responsiveness to DSS-induced colitis depending on their genetic background, gender. DSS model is a faithful model of inflammation but departs from Ulcerative Colitis in part for lack of the inflammation gradient from the rectum to the proximal colon usually observed in UC, any deregulation of ER stress in goblet cells known to be an early etiological factor of UC, and no digestive or extra-digestive complications of UC such as cholangitis and colorectal cancer, respectively. The use of genetically modified mice model represents a good alternative to chemically-induced colitis mice model. […]
as §3

DSS-treated mice = assay: Length of colon from DSS-treated mice mimicking acute ulcerative colitis; type: in vivo; conditions: 5% DSS in drinking water; daily ip 20 μg; one week
Protocol: FIG. 8: Effect of daily ip inoculation of OxA, Suvorexant and Almorexant on the length of colon from DSS- (dextran sulfate sodium) treated mice mimicking the acute ulcerative colitis disease. A. Mice were treated with 5% (w/v) DSS in drinking water and daily injected with 20 μg of OxA (OXA IP), 20 μg of Suvorexant (Suvo) or 20 μg of Almorexant (Almo). Control (wt) or treated DSS mice (DSS) were daily injected with 100 μl PBS. After one week of treatment, mice were sacrificed and the length of colon which represented a good marker of inflammation state, was measured. […] B. quantification of colon length from 5 different DSS-treated mice injected with OxA (DSS+OXA IP), Almorexant (DSS+Almo), Suvorexant (DSS+Suvo) or not injected (WT and DSS). NS, no significant; *, p<0.05; ** p<0.001
The inventors also investigated the effect of daily intraperitoneal inoculation of OxA, Suvorexant and Almorexant on the length of colon from DSS- (dextran sulfate sodium) treated mice mimicking the acute ulcerative colitis disease.

In the case of `Cc1cc(NC(=O)Nc2ccc(N(C)C)cc2)c2cc(F)cc(F)c2n1` [SB408124], the “Inhibition of cellular growth” value [1] was “induced also a strong inhibition in a dose-dependent manner of cellular growth”, the “Apoptosis (annexin V-PE binding)” value [2] was “able to induce in a dose-dependent manner cell apoptosis” and the “Inhibition of cellular growth” value (HEK-OX1R cells) was “induced also a strong inhibition in a dose-dependent manner of cellular growth”. For the same compound, the “Effect on OxA-induced Ca2+ mobilization (antagonist effect)” value (OX1R; 1 μM preincubation 1 h, then 1 μM OxA) was “totally abolished the induced-Ca^2+ mobilization”.
“OxA: Orexin A peptide with two disulphide bridges, agonist of OX1R (QPLPDCCRQKTCSCRLYELLHGAGNHAAGILTL; disulfide (positions not given here); ends not checked; also: two disulphide bridges, places not given here; UniProt O43612 34-66, looked up)” was tested, and the “IL6 secretion in colon extracts” value (DSS-induced colitis mice [3]) was “reduces the secretion”, the “IL10 secretion in colon extracts” value (DSS-induced colitis mice [3]) was “has no effect” and the “IL12 secretion in colon extracts” value (DSS-induced colitis mice [3]) was “has no effect”. For the same compound, the “INFγ secretion in colon extracts” value (DSS-induced colitis mice [3]) was “has no effect”, the “TNFα secretion in colon extracts” value (DSS-induced colitis mice [3]) was “reduces the secretion” and the “IL1B in colon extracts” value (DSS-induced colitis mice [3]; qPCR per FIG. 3) was “reduces the secretion”. The “IL8 homolog in colon extracts” value (DSS-induced colitis mice [3]; qPCR per FIG. 3) was “reduces the secretion”, the “Inhibition of cellular growth” value [1] was “induced a strong inhibition of cellular growth” and the “Apoptosis (annexin V-PE binding)” value [2] was “induced an apoptotic effect”. For the same compound, the “Disease Activity Index (DAI) scored by weight, length of colon, diarrhea and blood in the stool” value (DSS-induced colitis mice [4]) was “ameliorates”, the “Inhibition of cellular growth” value (HEK-OX1R cells) was “induced a strong inhibition of cellular growth” and the “Effect on severe spontaneous colitis” value (EXCY2 mice) was “alleviated severe colitis”. For the same compound, the “Histological aspect of colonic mucosa (crypts aspect, crypt size, goblet cells, immune cells infiltration)” value (EXCY2 mice; vs vehicle treated) was “exhibited a normal colonic mucosa”, the “Ca2+ mobilization (agonist effect)” value (OX1R; 1 μM) was “induced a large and transient Ca^2+ mobilization” and the “Protection from DSS induced acute ulcerative colitis (colon length)” value (“Protection” for short) (DSS-treated mice) was “protect mice from DSS induced acute ulcerative colitis disease”.
`CNC(=O)[C@@H](c1ccccc1)N1CCc2cc(OC)c(OC)cc2[C@@H]1CCc1ccc(C(F)(F)F)cc1` [Almorexant] was tested, and the “Protection” value (DSS-treated mice) was “protect mice from DSS induced acute ulcerative colitis disease”.
For `Cc1ccc(-n2nccn2)c(C(=O)N2CCN(c3nc4cc(Cl)ccc4o3)CC[C@H]2C)c1` [Suvorexant], the “Protection” value (DSS-treated mice) was “protect mice from DSS induced acute ulcerative colitis disease”.
